The values that follow come from paper PMC8530378, “Comparison of: (2S,4R)-4-[^18F]Fluoroglutamine, [^11C]Methionine, and 2-Deoxy-2-[^18F]Fluoro-D-Glucose and Two Small-Animal PET/CT Systems Imaging Rat Gliomas” (Frontiers in Oncology, 2021).

Data set [1] has as its system orthotopic BT4C gliomas. The experiment in a line: Dynamic PET/CT imaging of orthotopic BT4C gliomas, tumor-to-healthy brain uptake ratio (TBR). The format is in vivo. The conditions noted are these: dynamic PET images, both cameras pooled, BT4C glioma-bearing BDIX rats. On the procedure: The 16 glioma-bearing BDIX-Ifz rats (herein "BDIX") for imaging studies (8 weeks old, 9 males and 7 females) were anesthetized under 2-2.5% isoflurane and given buprenorphine (0.01 mg/kg) and carprofen (5 mg/kg) for analgesia during surgery. […] All animals were sacrificed after either the final imaging (PET studies) or the final blood sample collection (metabolism studies) under deep isoflurane anesthesia (4%) via cervical dislocation after cardiac puncture to collect terminal blood samples. […] The injected amount of radioactivity also varied based on camera and radionuclide. […] Each PET image was separately examined, in the initial 20 s of frames for the amino-acid-based radiopharmaceuticals and 40-60 min frames for [^18F]FDG, to manually delineate heart left ventricle cavity voxels to use as a blood radioactivity estimation region of interest (ROI). […] The dynamic PET image data was then extracted from each separate image and converted to standardized uptake values (SUV) which account for ROI volume, mean ROI radioactivity, subject weight, and total injected radioactivity dose (corrected for decay, residual syringe and cannula radioactivity). The results are shown as SUV ROI radioactivity curves over time as well as tumor-to-healthy brain region (TBR) ratios for improved comparisons. […]

For data set [2], the system named is BT4C glioma and healthy brain ROIs. The experiment in a line: Logan plot (reversible uptake model) of dynamic [^18F]FGln PET. The note with it: n = 13; for DV (AB): arterial blood radioactivity input; for DV (P): unbound plasma radioactivity fraction input. The format is in vivo, BDIX rats. The source says: The dynamic PET image data was then extracted from each separate image and converted to standardized uptake values (SUV) which account for ROI volume, mean ROI radioactivity, subject weight, and total injected radioactivity dose (corrected for decay, residual syringe and cannula radioactivity). The results are shown as SUV ROI radioactivity curves over time as well as tumor-to-healthy brain region (TBR) ratios for improved comparisons. [^18F]FGln uptake data and blood radioactivity data (corrected for bioavailability fraction over time) were also input into multiple pharmacokinetic models described in the "[^18F]FGln Pharmacokinetic Modeling" section.
Blood input values from the heart left ventricle ROI in the PET image data were corrected for bioavailable fraction with Eqn. 2. Logan ([25]), Patlak ([26]), and two two-compartment models ([27]) (reversible and irreversible) were applied to whole-blood, unbound plasma fraction, and unbound plasma fraction assayed for parent-radiopharmaceutical purity as inputs for tumor and healthy brain ROIs. Mean, standard deviation, and two-tailed unpaired Student's t-test (for camera comparison, modeling values, and gender differences) p-values are reported where applicable.

`NC(=O)[C@H]([18F])C[C@H](N)C(=O)O` [[^18F]FGln, (2S,4R)-4-[^18F]Fluoroglutamine]: the “Average tumor-to-healthy brain tissue uptake ratio (TBR), maximum” value in data set [1] is listed as 1.99 ± 0.19. The “Tumor DV/Healthy Brain DV (FP)” value in data set [2] (free parent plasma input) is 2.31 ± 0.40. For the same compound, the “DV (AB)” value is on record as 0.66 ± 0.19 in data set [2] (healthy brain ROI) and 1.35 ± 0.36 in data set [2] (tumor ROI). Besides, the “DV (FP)” value was determined as 1.72 ± 0.66 in data set [2] (healthy brain ROI, free parent plasma input) and 4.00 ± 1.96 in data set [2] (tumor ROI, free parent plasma input). The entries for the “DV (P)” value in data set [2] (healthy brain ROI) and in data set [2] (tumor ROI) were 0.48 ± 0.14 and 1.00 ± 0.30, respectively.
